Measured values from ChEMBL document CHEMBL1149799, “Bioactive peroxides as potential therapeutic agents” (Eur J Med Chem, 2008).
In brackets after ≈: the same amount, converted by molar mass.

Test system: DU-145
Test: Cytotoxicity against human DU145 cells
Assay type: functional, cell-based
Settings: Homo sapiens, DU-145

Row | SMILES | IC50
1 | C=CCC/C=C\C=C/CCCCCCCC[C@H]1CC[C@H]([C@@H]2CC[C@@H](CC(=O)[O-])OO2)O1.[Na+] [stolonoxide C] | 0.1 µg/mL
2 | C=CCCC/C=C/C=C\CCCCCCCC[C@H]1CC[C@H]([C@@H]2CC[C@@H](CC(=O)[O-])OO2)O1.[Na+] [STOLONOXIDE D] | 0.1 µg/mL
3 | C=CCC/C=C\C=C/CCCCCCCC[C@@H]1CC[C@@H]([C@@H]2CC[C@@H](CC(=O)[O-])OO2)O1.[Na+] | 0.1 µg/mL
4 | C=CCCC/C=C/C=C\CCCCCCCC[C@H]1CC[C@@H]([C@H]2CC[C@@H](CC(=O)O)OO2)O1 [STOLONOXIDE B] | 0.1 µg/mL (≈ 0.223 µM)
5 | C=CCCC/C=C/C=C\CCCCCCCC[C@H]1CC[C@H]([C@@H]2CC[C@@H](CC(=O)OC)OO2)O1 | 0.1 µg/mL (≈ 0.216 µM)
6 | C=CCC/C=C\C=C/CCCCCCCC[C@H]1CC[C@H]([C@@H]2CC[C@@H](CC(=O)OC)OO2)O1 | 0.1 µg/mL (≈ 0.223 µM)
7 | C=CCC/C=C\C=C/CCCCCCCC[C@H]1CC[C@@H]([C@@H]2CC[C@@H](CC(=O)O)OO2)O1 [STOLONOXIDE A] | 0.1 µg/mL (≈ 0.23 µM)
8 | C=CCC/C=C\C=C/CCCCCCCC[C@@H]1CC[C@@H]([C@@H]2CC[C@@H](CC(=O)OC)OO2)O1 | 0.1 µg/mL (≈ 0.223 µM)

Test system: not listed separately
Test: Cytotoxicity against human MEL28 cells
Settings: SK-MEL-28

Row | SMILES | IC50
9 | C=CCC/C=C\C=C/CCCCCCCC[C@H]1CC[C@H]([C@@H]2CC[C@@H](CC(=O)[O-])OO2)O1.[Na+] [stolonoxide C] | 0.5 µg/mL
10 | C=CCCC/C=C/C=C\CCCCCCCC[C@H]1CC[C@H]([C@@H]2CC[C@@H](CC(=O)[O-])OO2)O1.[Na+] [STOLONOXIDE D] | 0.1 µg/mL
11 | C=CCC/C=C\C=C/CCCCCCCC[C@@H]1CC[C@@H]([C@@H]2CC[C@@H](CC(=O)[O-])OO2)O1.[Na+] | 0.1 µg/mL
12 | C=CCCC/C=C/C=C\CCCCCCCC[C@H]1CC[C@@H]([C@H]2CC[C@@H](CC(=O)O)OO2)O1 [STOLONOXIDE B] | 0.1 µg/mL (≈ 0.223 µM)
13 | C=CCCC/C=C/C=C\CCCCCCCC[C@H]1CC[C@H]([C@@H]2CC[C@@H](CC(=O)OC)OO2)O1 | 0.1 µg/mL (≈ 0.216 µM)
14 | C=CCC/C=C\C=C/CCCCCCCC[C@H]1CC[C@H]([C@@H]2CC[C@@H](CC(=O)OC)OO2)O1 | 0.5 µg/mL (≈ 1.11 µM)
15 | C=CCC/C=C\C=C/CCCCCCCC[C@H]1CC[C@@H]([C@@H]2CC[C@@H](CC(=O)O)OO2)O1 [STOLONOXIDE A] | 0.1 µg/mL (≈ 0.23 µM)
16 | C=CCC/C=C\C=C/CCCCCCCC[C@@H]1CC[C@@H]([C@@H]2CC[C@@H](CC(=O)OC)OO2)O1 | 0.1 µg/mL (≈ 0.223 µM)

Test system: HT-29
Test: Cytotoxicity against human HT29 cells
Assay type: functional, cell-based
Settings: Homo sapiens, HT-29

Row | SMILES | IC50
17 | C=CCC/C=C\C=C/CCCCCCCC[C@H]1CC[C@H]([C@@H]2CC[C@@H](CC(=O)[O-])OO2)O1.[Na+] [stolonoxide C] | 0.1 µg/mL
18 | C=CCCC/C=C/C=C\CCCCCCCC[C@H]1CC[C@H]([C@@H]2CC[C@@H](CC(=O)[O-])OO2)O1.[Na+] [STOLONOXIDE D] | 0.05 µg/mL
19 | C=CCC/C=C\C=C/CCCCCCCC[C@@H]1CC[C@@H]([C@@H]2CC[C@@H](CC(=O)[O-])OO2)O1.[Na+] | 0.1 µg/mL
20 | C=CCCC/C=C/C=C\CCCCCCCC[C@H]1CC[C@@H]([C@H]2CC[C@@H](CC(=O)O)OO2)O1 [STOLONOXIDE B] | 0.1 µg/mL (≈ 0.223 µM)
21 | C=CCCC/C=C/C=C\CCCCCCCC[C@H]1CC[C@H]([C@@H]2CC[C@@H](CC(=O)OC)OO2)O1 | 0.05 µg/mL (≈ 0.108 µM)
22 | C=CCC/C=C\C=C/CCCCCCCC[C@H]1CC[C@H]([C@@H]2CC[C@@H](CC(=O)OC)OO2)O1 | 0.05 µg/mL (≈ 0.111 µM)
23 | C=CCC/C=C\C=C/CCCCCCCC[C@H]1CC[C@@H]([C@@H]2CC[C@@H](CC(=O)O)OO2)O1 [STOLONOXIDE A] | 0.1 µg/mL (≈ 0.23 µM)
24 | C=CCC/C=C\C=C/CCCCCCCC[C@@H]1CC[C@@H]([C@@H]2CC[C@@H](CC(=O)OC)OO2)O1 | 0.1 µg/mL (≈ 0.223 µM)

Test system: P388
Test: Cytotoxicity against mouse P388 cells
Assay type: functional, cell-based
Settings: Mus musculus, P388

Row | SMILES | IC50
25 | C=CCC/C=C\C=C/CCCCCCCC[C@H]1CC[C@H]([C@@H]2CC[C@@H](CC(=O)[O-])OO2)O1.[Na+] [stolonoxide C] | 0.5 µg/mL
26 | C=CCCC/C=C/C=C\CCCCCCCC[C@H]1CC[C@H]([C@@H]2CC[C@@H](CC(=O)[O-])OO2)O1.[Na+] [STOLONOXIDE D] | 0.5 µg/mL
27 | C=CCC/C=C\C=C/CCCCCCCC[C@@H]1CC[C@@H]([C@@H]2CC[C@@H](CC(=O)[O-])OO2)O1.[Na+] | 0.01 µg/mL
28 | C=CCCC/C=C/C=C\CCCCCCCC[C@H]1CC[C@@H]([C@H]2CC[C@@H](CC(=O)O)OO2)O1 [STOLONOXIDE B] | 0.05 µg/mL (≈ 0.111 µM)
29 | C=CCCC/C=C/C=C\CCCCCCCC[C@H]1CC[C@H]([C@@H]2CC[C@@H](CC(=O)OC)OO2)O1 | 0.01 µg/mL (≈ 0.0216 µM)
30 | C=CCC/C=C\C=C/CCCCCCCC[C@H]1CC[C@H]([C@@H]2CC[C@@H](CC(=O)OC)OO2)O1 | 0.5 µg/mL (≈ 1.11 µM)
31 | C=CCC/C=C\C=C/CCCCCCCC[C@H]1CC[C@@H]([C@@H]2CC[C@@H](CC(=O)O)OO2)O1 [STOLONOXIDE A] | 0.01 µg/mL (≈ 0.023 µM)
32 | C=CCC/C=C\C=C/CCCCCCCC[C@@H]1CC[C@@H]([C@@H]2CC[C@@H](CC(=O)OC)OO2)O1 | 0.05 µg/mL (≈ 0.111 µM)

Test system: A549
Test: Cytotoxicity against human A549 cells
Assay type: functional, cell-based
Settings: Homo sapiens, A549

Row | SMILES | IC50
33 | C=CCC/C=C\C=C/CCCCCCCC[C@H]1CC[C@H]([C@@H]2CC[C@@H](CC(=O)[O-])OO2)O1.[Na+] [stolonoxide C] | 0.1 µg/mL
34 | C=CCCC/C=C/C=C\CCCCCCCC[C@H]1CC[C@H]([C@@H]2CC[C@@H](CC(=O)[O-])OO2)O1.[Na+] [STOLONOXIDE D] | 0.1 µg/mL
35 | C=CCC/C=C\C=C/CCCCCCCC[C@@H]1CC[C@@H]([C@@H]2CC[C@@H](CC(=O)[O-])OO2)O1.[Na+] | 0.1 µg/mL
36 | C=CCCC/C=C/C=C\CCCCCCCC[C@H]1CC[C@@H]([C@H]2CC[C@@H](CC(=O)O)OO2)O1 [STOLONOXIDE B] | 0.1 µg/mL (≈ 0.223 µM)
37 | C=CCCC/C=C/C=C\CCCCCCCC[C@H]1CC[C@H]([C@@H]2CC[C@@H](CC(=O)OC)OO2)O1 | 0.01 µg/mL (≈ 0.0216 µM)
38 | C=CCC/C=C\C=C/CCCCCCCC[C@H]1CC[C@H]([C@@H]2CC[C@@H](CC(=O)OC)OO2)O1 | 0.1 µg/mL (≈ 0.223 µM)
39 | C=CCC/C=C\C=C/CCCCCCCC[C@H]1CC[C@@H]([C@@H]2CC[C@@H](CC(=O)O)OO2)O1 [STOLONOXIDE A] | 0.1 µg/mL (≈ 0.23 µM)
40 | C=CCC/C=C\C=C/CCCCCCCC[C@@H]1CC[C@@H]([C@@H]2CC[C@@H](CC(=O)OC)OO2)O1 | 0.1 µg/mL (≈ 0.223 µM)
